Values quoted from earlier work in patent US4599352A, “Antineoplastic platinum (IV) complexes and compositions” (priority 1984, dated 1986).

What was measured:
leukemia L1210 = settings: cited from earlier work
[1] = test system: sarcoma-180, ascites form; settings: cited from earlier work

Compound | Antitumor activity ranking (leukemia L1210) | Antitumor efficacy ranking [1]
[Cl][Pt]1([Cl])[NH]C2CCCCC2[NH]1 (single isomer, unassigned) [dichloro (1,2-diaminocyclohexane) platinum (II) complex trans (1) isomer] | highest activity | 
NC1CCCCC1N.[Cl-].[Cl-].[Pt+2] (stereo not drawn) [Cis-dichloro-cis-1,2-cyclohexanediamine platinum (II)] | least active | more efficacious than the corresponding trans isomers
[Cl][Pt]1([Cl])[NH]C2CCCCC2[NH]1 (single isomer, unassigned) [dichloro (1,2-diaminocyclohexane) platinum (II) complex trans (d) isomer] | intermediate activity | 
